# Measurements: patent publication US20160115540A1, “PRODRUGS AND DRUGS” (Biogen MA Inc., priority 2013, published 2016)
# Structures can show the parent of a compound that is named as a salt.
# Tested on: cortex
# Experiment: Transcriptional profiling on Affymetrix GeneChips, single dose, naïve mice: cortex
# Format: in vivo, C57BL/6 mice
# Conditions: for Number of differentially expressed genes identified: Cortex: Naïve, Single Dose
# Protocol: Treated mice were sacrificed at 2, 7, or 12 hours. Tissues (liver, spleen, kidney, jejunum, cortex, hippocampus, striatum and whole blood) were collected and analyzed by transcriptional profiling on mouse Affymetrix GeneChips.
# Tissues (liver, spleen, kidney, jejunum, cortex, hippocampus, striatum and whole blood) were collected and analyzed by transcriptional profiling on mouse Affymetrix GeneChips.
# Animals were exposed to CO2 and whole blood collected via cardiac puncture. Two 100 μl aliquots of whole blood were collected in 1.5 mL microcentrifuge tubes and snap frozen in liquid nitrogen. Peripheral (liver, spleen, kidney and jejunum) and CNS brain (cerebellum, hippocampus, striatum and cortex) tissues were harvested and snap frozen in liquid nitrogen, with special care taken to collect tissues of similar size and from the same location. All samples were stored at −80° C. until RNA extraction was conducted.
# For RNA preparation, frozen tissues were placed in 2 mL RNAse-free 96-well blocks with 1.5 mL QIAzol Lysis Reagent (QIAgen) and a 3.2 mm stainless steel bead (BioSpec Products, Bartlesville, Okla.). Tissues were disrupted for four cycles of 45 seconds in a Mini-Beadbeater (Biospec Products). RNA was extracted in chloroform and the aqueous phase was mixed with an equal volume of 70% ethanol. Extracted RNA was applied to RNeasy 96 plates and purified by the spin method according to the manufacturer's protocol (RNeasy 96 Universal Tissue Protocol, QIAgen, Hilden Germany).
# Automated sample amplifications and biotin labelings were carried out using the NuGEN Ovation RNA Amplification system V2 (Cat #3100), Ovation WB reagent (Cat #1300) and Encore Biotin module (Cat #4200) (NuGEN Technologies, Inc, San Carlos, Calif.) according to manufacturer's recommendations using an Arrayplex automated liquid handler (Beckman Coulter, Indianapolis, Ind.). Two micrograms of biotin labeled sscDNA probe were hybridized to Affymetrix GeneChip Affymetrix HT_MG-430_PM plate arrays with modified conditions as described in Allaire et al. Washing and staining of the hybridized arrays were completed as described in the GeneChip Expression analysis technical manual for HT plate arrays using the Genechip® Array Station (Affymetrix, Santa Clara, Calif.) with modifications as described in Allaire et al. The processed GeneChip® plate arrays were scanned using GeneTitan scanner (Affymetrix, Santa Clara, Calif.).
# Affymetrix scans were subject to quality control (QC) measures. These tests included a visual inspection of the distribution of raw signal intensities and an assessment of RNA degradation, relative log expression (RLE), and normalized unsealed standard error (NUSE). All sample scans that passed these QC metrics were included in the analysis.
# All CEL files were subjected to GC-content-based Robust Multi-array Average (GCRMA) normalization (version 2.20.0) (Irizarry R A, et al. Nucleic Acids Res 2003; 31:e15; Li C, et al. Genome Biol 2001; 2:[…]0032). Expression levels were log (base 2) transformed.
# All calculations and analyses were carried out using R (version 2.11.1) and Bioconductor computational tools (Gentleman R. Springer Science+Business Media 2005).
# [1] = 100 mpk, vs Vehicle, 2 h after last dosing
# [2] = 100 mpk, vs Vehicle, 7 h after last dosing
# [3] = 100 mpk, vs Vehicle, 12 h after last dosing
# [4] = cortex, 2 hr after single 100 mg/kg oral dose
# [5] = cortex, 7 hr after single 100 mg/kg oral dose
smiles,measurement,setting,value
"COC(=O)/C=C/C(=O)OC [DMF, dimethyl fumarate]","Number of genes, DMF Only / MMF Only",Cortex,2
same,Fgfbp1 (1419086_PM_at) differential expression,"Cortex, 7 hr",1.54
same,Nqo1 (1423627_PM_at) differential expression,"Cortex, 7 hr",1.50
same,Number of differentially expressed genes identified: Cortex,"100 mpk DMF-vs-100 mpk MMF, 2 h after last dosing",0
same,Number of differentially expressed genes identified: Cortex,"100 mpk DMF-vs-100 mpk MMF, 7 h after last dosing",0
same,Number of differentially expressed genes identified: Cortex,"100 mpk DMF-vs-100 mpk MMF, 12 h after last dosing",0
same,Number of differentially expressed genes identified: Cortex,[1],2
same,Number of differentially expressed genes identified: Cortex,[2],2
same,Number of differentially expressed genes identified: Cortex,[3],0
same,differentially expressed genes,"cortex, 100DMF-vs-100MMF, 2 h",None
same,differentially expressed genes,"cortex, 100DMF-vs-100MMF, 7 h",None
same,differentially expressed genes,"cortex, 100DMF-vs-100MMF, 12 h",None
same,FC AI314604 (1442075_PM_at),"cortex, 100DMF-vs-Veh, 2 h",1.57
same,FC Ciapin1 (1448140_PM_at),"cortex, 100DMF-vs-Veh, 2 h",1.55
same,FC Fgfbp1 1419086_PM_at,"cortex, 100DMF-vs-Veh, 7 h",1.54
same,FC Nqo1 (1423627_PM_at),"cortex, 100DMF-vs-Veh, 7 h",1.50
same,differentially expressed genes,"cortex, 100DMF-vs-Veh, 12 h",None
"COC(=O)/C=C/C(=O)O [MMF, monomethyl fumarate]","Number of genes, DMF Only / MMF Only",Cortex,14
same,Arnt2 (1420670_PM_at) differential expression,"Cortex, 2 hr",−1.66
same,Atrn (1421166_PM_at) differential expression,"Cortex, 2 hr",−1.62
same,Chka (1442277_PM_at) differential expression,"Cortex, 2 hr",−1.53
same,Ednrb (1423594_PM_a_at) differential expression,"Cortex, 2 hr",−1.53
same,Extl3 (1421339_PM_at) differential expression,"Cortex, 2 hr",−1.57
same,Mkln1 (1416734_PM_at) differential expression,"Cortex, 2 hr",−1.85
same,Plekhm3 (1438108_PM_at) differential expression,"Cortex, 2 hr",−1.50
same,Ptk2 (1430827_PM_a_at) differential expression,"Cortex, 2 hr",−1.53
same,Ptprg (1456070_PM_at) differential expression,"Cortex, 2 hr",−1.83
same,Speer4b (1429992_PM_at) differential expression,"Cortex, 2 hr",−1.60
same,Tanc2 (1443123_PM_at) differential expression,"Cortex, 2 hr",−1.72
same,Top2b (1448458_PM_at) differential expression,"Cortex, 2 hr",−1.51
same,Trak2 (1429607_PM_at) differential expression,"Cortex, 2 hr",−1.57
same,Aox1 (1419435_PM_at) differential expression,"Cortex, 7 hr",1.65
same,Fgfbp1 (1419086_PM_at) differential expression,"Cortex, 7 hr",1.62
same,Aox1 (1419435_PM_at) differential expression,"Cortex, 12 hr",1.54
same,Number of differentially expressed genes identified: Cortex,[1],9
same,Number of differentially expressed genes identified: Cortex,[2],2
same,Number of differentially expressed genes identified: Cortex,[3],1
same,FC Arnt2 (1420670_PM_at),"cortex, 100MMF-vs-Veh, 2 h",−1.66
same,FC Atrn (1421166_PM_at),"cortex, 100MMF-vs-Veh, 2 h",−1.62
same,FC Ednrb (1423594_PM_a_at),"cortex, 100MMF-vs-Veh, 2 h",−1.53
same,FC Mkln1 (1416734_PM_at),"cortex, 100MMF-vs-Veh, 2 h",−1.85
same,FC Plekhm3 (1438108_PM_at),"cortex, 100MMF-vs-Veh, 2 h",−1.50
same,FC Ptk2 (1430827_PM_a_at),"cortex, 100MMF-vs-Veh, 2 h",−1.53
same,FC Tanc2 (1443123_PM_at),"cortex, 100MMF-vs-Veh, 2 h",−1.72
same,FC Top2b (1448458_PM_at),"cortex, 100MMF-vs-Veh, 2 h",−1.51
same,FC Trak2 (1429607_PM_at),"cortex, 100MMF-vs-Veh, 2 h",−1.57
same,FC Aox1 (1419435_PM_at),"cortex, 100MMF-vs-Veh, 7 h",1.65
same,FC Fgfbp1 1419086_PM_at,"cortex, 100MMF-vs-Veh, 7 h",1.62
same,FC Aox1 (1419435_PM_at),"cortex, 100MMF-vs-Veh, 12 h",1.54
same,Arnt2 mRNA fold change vs vehicle,[4],−1.66
same,Atrn mRNA fold change vs vehicle,[4],−1.62
same,Chka mRNA fold change vs vehicle,[4],−1.53
same,Ednrb mRNA fold change vs vehicle,[4],−1.53
same,Extl3 mRNA fold change vs vehicle,[4],−1.57
same,Mkln1 mRNA fold change vs vehicle,[4],−1.85
same,Plekhm3 mRNA fold change vs vehicle,[4],−1.50
same,Ptk2 mRNA fold change vs vehicle,[4],−1.53
same,Ptprg mRNA fold change vs vehicle,[4],−1.83
same,Speer4b mRNA fold change vs vehicle,[4],−1.60
same,Tanc2 mRNA fold change vs vehicle,[4],−1.72
same,Top2b mRNA fold change vs vehicle,[4],−1.51
same,Trak2 mRNA fold change vs vehicle,[4],−1.57
same,Aox1 mRNA fold change vs vehicle,[5],1.65
same,Fgfbp1 mRNA fold change vs vehicle,[5],1.62
same,Aox1 mRNA fold change vs vehicle,"cortex, 12 hr after single 100 mg/kg oral dose",1.54
